Structures can show the parent of a compound that is named as a salt. Where two headings read alike, the source gives them in different places.
Legend:
human P2X4 = biological target: T1, human P2X4 (Homo sapiens, UniProt Q99571); assay: P2X4 receptor antagonistic action: ATP-induced intracellular calcium response (Fura-2AM) in P2X4 receptor-expressing 1321N1 cells; type: cell-based
T1 sequence (Q99571 1-388): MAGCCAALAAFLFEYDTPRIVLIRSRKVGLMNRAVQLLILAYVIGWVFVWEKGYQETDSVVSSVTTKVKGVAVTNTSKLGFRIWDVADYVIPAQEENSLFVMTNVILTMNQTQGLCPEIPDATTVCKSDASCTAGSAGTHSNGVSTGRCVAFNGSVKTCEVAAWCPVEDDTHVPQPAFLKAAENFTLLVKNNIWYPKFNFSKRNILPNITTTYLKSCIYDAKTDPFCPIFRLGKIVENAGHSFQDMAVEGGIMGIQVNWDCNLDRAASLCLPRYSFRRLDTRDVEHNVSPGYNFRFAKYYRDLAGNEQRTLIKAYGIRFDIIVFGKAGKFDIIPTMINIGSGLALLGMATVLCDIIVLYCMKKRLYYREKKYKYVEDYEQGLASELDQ
Description: An ATP receptor (human P2X4) was introduced in 1321N1 cells, which were then used as a system in which P2X4 receptor was expressed stably. The P2X4 receptor-expressing cells were seeded on a 96-well plate, were cultured for 24 h under conditions at 37° C. and 5% C02, and were then used for calcium measurement. Fura-2AM, which is a calcium fluorescence indicator, was dissolved in an extracellular solution for calcium imaging and applied to the seeded cells. Then, the cells were allowed to stand at room temperature for 45 min. In this way, the Fura-2AM was taken up in the cells. A micro plate reader EnVision (PerkinElmer) was used for the measurement. Light emitted from a xenon lamp was made to pass through a 340-nm or 380-nm filter, and F340 or F380, which is 510-nm fluorescence emitted when the cells were irradiated, were observed. Then, a change in the ratio value F340/F380 was an index for the intracellular calcium change. The measurement was carried out by adding ATP at the final concentration of 1 μM to each well and by recording, over time, the ATP-induced intracellular calcium response. The inhibitory activity of each test substance was measured by conducting 15-min pretreatment with each test substance before ATP application, and was calculated while compared to the case of the absence of the test substance.

[1] = system: citric acid-induced cough; conditions: cited from earlier work
[2] = system: citric acid (0.5 M)-induced cough; assay: Citric acid-induced cough reflux in pretreatment guinea pigs, oral administration; type: in vivo, Hartly strain guinea pigs; conditions: for number of coughs, pre versus post administration: pretreatment guinea pigs
Excerpt: Cough reflux is induced by inhalation of (in the case of mice, 0.1 M or 0.25 M and in the case of guinea pigs, 0.25 M or 0.5 M) citric acid by mice or guinea pigs under non-anesthesia conditions. The citric acid is made aerosol by using an ultrasonic nebulizer (NE-U17: OMRON Corporation), and is inhaled while the air is supplied with an artificial respirator (SN-480-7: Shinano Seisakusho). The citric acid aerosol has an average particle size of from 1 to 8 μm, and the artificial respirator is used to supply the air at a one-time ventilation volume of 6 mL, a frequency of 30 times per min, and an inhalation period of 3 min.
The respiration and the cough reflux are measured in accordance with the body-plethysmograph method. The plethysmograph used includes: a plastic-made, cylindrical cylinder part in which the trunk of each mouse or guinea pig is housed; and a cap part that covers the head portion (any plastic-made cylinder is allowed as long as each experimental animal can be put in; in the case of the mouse, for instance, the part with a diameter of 4 cm and a length of 7 cm was used). An exhaust hole is created at an upper cylinder portion so as to be able to connect, via a silicon tube, to a respiratory flow meter (TP-602T: NIHON KOHDEN CORPORATION). To tightly seal the inside of the cylinder, a rubber or celluloid collar is attached to the neck of each animal, and the cap covering the whole head is used to fix them. The head-attached cap part has an exhaust port and an inhalation port created for inhalation of a cough-inducing substance. In addition, a screw-type lid is attached to a tail portion of the cylinder so as to move in or out each experimental animal. Each mouse is put in the cylinder, allowed to play for at least 30 min, adapted to an experimental environment, and then subjected to the experiment. The respiration is recorded in a PC (IdeaPad 300: Lenovo) for measurement by measuring, as a change in volume of the cylinder, the chest movement of each experimental animal in the cylinder by using a PowerLab (ML826 PowerLab 2/26: AD Instruments) via a respiratory flow meter. When a cough is induced, the chest of the experimental animal is moved vigorously, which causes an instantaneous large volume change in the cylinder. This change is recorded using the respiratory flow meter. This frequency is recorded to measure the number of coughs. The data is analyzed by LabChart version 8 (ADInstruments). In addition, immediately before inhalation of citric acid, the respiratory frequency per 15 sec is measured.
In this way, the effects were investigated.
At that time, Hartly strain guinea pigs were used as the guinea pigs, and 0.5 M citric acid was used as the citric acid.
In this way, the effects were investigated. Here, 0.5 M citric acid was used as the pretreated citric acid.

[3] = system: citric acid (0.25 M)-induced cough; assay: Citric acid-induced cough reflux in pretreatment mice, oral administration; type: in vivo, ICR strain mice; conditions: oral 10 mg/kg, 0.25 M citric acid 1 h after administration
[4] = Table 131 (Example 1), human P2X4-expressing 1321N1 cells, ATP 1 μM, Fura-2AM calcium response, read-out: IC50

“5-[4-[(2-(3-fluorophenyl)ethyl)-1H-imidazol-1-yl]phenyl]-1H-naphtho[1,2-b][1,4]diazepin-2,4(3H,5H)-dione hydrochloride [Compound H31]” showed an IC50 (human P2X4; Table 135 (Example 14), same protocol as Example 1, read-out: Inhibitory action IC50) of 0.051 µM.

In the case of Nc1ncnc2c1ncn2[C@@H]1O[C@H](COP(=O)(O)OP(=O)(O)OP(=O)(O)O)[C@@H](O)[C@H]1O [ATP, adenosine triphosphate], the “effect of ATP on citric acid-induced cough” value ([1]; guinea pigs, Non Patent Literature 1) is given as “elicited a concentration-dependent and significant increase”.

O=C1CN=C(c2cccc(-c3nnn[nH]3)c2)c2ccc3ccccc3c2N1 [Compound A21, 5-[3-(1H-tetrazol-5-yl)phenyl]-1,3-dihydro-2H-naphtho[1,2-e][1,4]diazepin-2-one sodium salt] gave an IC50 (human P2X4) of 0.91 µM.

O=C1CC(=O)N(c2ccc(F)c(-c3nnn[nH]3)c2)c2ccc3ccccc3c2N1 [Compound A23, 5-[4-fluoro-3-(1H-tetrazol-5-yl)phenyl]-1H-naphtho[1,2-b][1,4]diazepin-2,4(3H,5H)-dione sodium salt] gave an IC50 (human P2X4; [4]) of 0.49 µM.

O=c1[nH]c2c3ccccc3ccc2n(-c2cccc(-c3nnn[nH]3)c2)c1=O [Compound C2, 4-[3-(1H-tetrazol-5-yl)phenyl]-1,4-dihydrobenzo[f]quinoxalin-2,3-dione sodium salt] gave an IC50 (human P2X4; [4]) of 0.57 µM.

In the case of O=c1nc(-c2cccc(-c3nnn[nH]3)c2)c2ccc3ccccc3c2[nH]1 [Compound D2, 4-[3-(1H-tetrazol-5-yl)phenyl]-1H-benzo[h]quinazolin-2-one sodium salt], the IC50 (human P2X4; [4]) is reported as 0.33 µM.

Compound O=C1CC(=O)N(c2ccc(-n3nnnc3Cc3ccccc3O)nc2)c2ccc3ccccc3c2N1 [Compound H11, 5-[6-[5-(2-hydroxybenzyl)-1H-tetrazol-1-yl]pyridin-3-yl]-1H-naphtho[1,2-b][1,4]diazepin-2,4(3H,5H)-dione] has an IC50 (human P2X4; Table 134 (Example 14), same protocol as Example 1, read-out: Inhibitory action IC50) of 0.077 µM.

In the case of COc1c(F)cccc1CCc1nccn1-c1ccc(N2C(=O)CC(=O)Nc3c2ccc2ccccc32)cc1 [Compound H83, 5-[4-[(2-(3-fluoro-2-methoxyphenyl)ethyl)-1H-imidazol-1-yl]phenyl]-1H-naphtho[1,2-b][1,4]diazepin-2,4(3H,5H)-dione hydrochloride], the IC50 (human P2X4; read-out: Inhibitory action IC50) is reported as 0.087 µM.

In the case of O=C1CC(=O)N(c2ccc(NC(=O)c3ccccc3C(F)(F)F)cc2)c2ccc3ccccc3c2N1 [compound C, 5-[4-[2-(trifluoromethyl)benzoyl]aminophenyl]-1H-naphtho[1,2-b][1,4]diazepin-2,4(3H,5H)-dione], the “cough response increased due to airway inflammation” value ([2]; as stated in Example 15, oral 58.8 mg/kg) is reported as “inhibited completely” and the “number of coughs, pre versus post administration” value ([2]; oral 58.8 mg/kg 1 h before 0.5 M citric acid stimulation) is reported as “significantly decreased”.

With CN(C)c1ncccc1C(=O)Nc1ccc(C2=NCC(=O)Nc3c2ccc2ccccc32)cc1.Cl.Cl [compound D, 2-(dimethylamino)-N-[4-(2-oxo-2,3-dihydro-1H-naphtho[1,2-e][1,4]diazepin-5-yl)phenyl]nicotinamide dihydrochloride] the “cough response increased due to airway inflammation” value ([2]; as stated in Example 15, oral 30 mg/kg) was “completely inhibit” and the “number of coughs, pre versus post administration” value ([2]; oral 30 mg/kg 1 h before 0.5 M citric acid stimulation) was “significantly decreased”.

With COc1ccc2c3c1O[C@H]1[C@@H](O)CC[C@H]4[C@@H](C2)N(C)CC[C@@]341 [dihydrocodeine, reference compound] the “cough inhibition rate, compound A versus the same dose of dihydrocodeine” value [3] was “comparable”.

In the case of TNP-ATP, the “number of coughs induced by citric acid and increased depending on the concentration of ATP” value ([1]; Non Patent Literature 2) is listed as “decreased” and the “inhibition of the ATP-elicited increase of citric acid-induced cough” value ([1]; guinea pigs, inhalation pretreatment / aerosol, Non Patent Literature 1) is listed as “completely inhibited”.

From patent US12233071B2, “Medicament for treating cough” (NIPPON CHEMIPHAR CO., LTD, priority 2018, dated 2025)
